pEC50: −log10 of the molar value.
What was measured:
HBV [1] = assay: Antiviral efficacy in AML12HBV10 cells, HBV DNA by dot-blot hybridization; assay type: cell-based, Hepatitis B virus (HBV); conditions: Hepatitis B virus
Method: The antiviral efficacy of the compounds of the disclosure, as presented in Tables 5, 6, 7, 8 and 9, were determined in AML12HBV10 cells. AML12HBV10 is an immortalized murine hepatocyte (AML12)-derived stable cell line that supports robust HBV replication in a tetracycline inducible manner (Xu et al.). The cells were seeded into 96 well plates at a density of 2×10^4 cells per well and cultured in DMEM/F12 media with 10% fetal bovine serum in the absence of tetracycline to allow pgRNA transcription and HBV DNA replication. One day after seeding, cells were left untreated or treated with a serial dilution of testing compounds, ranging from 50 μM to 0.39 μM, for 48 hours. Cells were then lysed by adding into each well of 100 μl lysis buffer containing 10 mM Tris-HCl (pH 7.6), 1 mM EDTA, 100 mM NaCl and 1% NP-40 and incubated at 37° C. for 30 minutes. Half amount (50 μl) of cell lysate from each well was combined with equal volume of denaturing solution containing 0.5N NaOH and 1.5M NaCl. After 5 minute incubation, 100 μl of neutralization solution (IM Tris-HCl, pH 7.4, 1.5M NaCl) was added into each well. The denatured cell lysates (totally 200 μl) were applied onto Nylon membrane using 96-well dot-blot manifold (Biorad). HBV DNA in the cell lysates were determined by dot-blot hybridization with alpha-^32P-UTP-labelled riboprobe specific for HBV minus strand DNA. The antiviral efficacy of a compound of the disclosure was expressed as the concentration that reduces the amount of HBV DNA by 50% (EC50).

[2] = Cytotoxicity in AML12HBV10 cells, MTT assay; assay type: cell-based, murine; conditions: mouse; AML12HBV10 cells, 48 hours, MTT; read-out: CC50 (cellular toxicity)
Method: (§1) Determination of cytotoxicity of compounds of the disclosure in AML12HBV10 cells: To determine the cytotoxicity of the compounds, AML12HBV10 cells were seeded into 96-well plates at a density of 2×10^4 cells per well and cultured in DMEM/F12 media with 10% fetal bovine serum in the absence of tetracycline to allow pgRNA transcription and HBV DNA replication. One day after seeding, cells were left untreated or treated with a serial dilution of testing compounds, ranging from 50 μM to 0.39 μM, for 48 hours. The cell viability was measured by a MTT assay, following procedure provided by the manufacturer (Promega). The cytotoxicity of a compound was expressed as the concentration of compound that reduces the viability of the cells by 50% (CC50).

AML12HBV10 cells = assay: Cytotoxicity in AML12HBV10 cells, MTT assay; assay type: cell-based, murine; conditions: Table 10, AML12HBV10 cells, unit inferred; read-out: AML12HBV10 CC50
Method: as §1

HBV [3] = assay: Antiviral activity in HepDES19 cells, core-associated HBV DNA by Southern blot hybridization; assay type: cell-based; conditions: Hepatitis B virus, 144 h, Table 10, HepDES19 cells, 6 days, unit inferred; for EC90: HBV DNA reduced by 90%; for pEC50: Southern blot
Method: FIG. 2 and Table 10, in human hepatoma-derived cell lines: To further confirm the antiviral activity of the compounds of the disclosure against HBV in human hepatocyte-derived cells, HepDES19 cells, a human hepatoma cell line supporting HBV replication in a tetracycline inducible manner (Guo et al., 2007), seeded into 12-well plates at a density of 5×10^5 cells per well and cultured in DMEM/F12 media with 10% fetal bovine serum and 1 μg/ml tetracycline. Two days after seeding, the cells were mock-treated or treated with a serial dilution of compounds of the disclosure, ranging from 10 μM to 0.018 μM, for 6 days in the absence of tetracycline. Upon the completion of treatment, cells were lysed by adding into each well of the 12-well plates 0.5 ml of lysis buffer containing 10 mM Tris-HCl (pH 8.0), 1 mM EDTA, 1% NP40 and 2% sucrose and incubating at 37° C. for 10 minutes. Cell debris and nuclei were removed by centrifugation and the supernatant was mixed with 130 μl of 35% polyethylene glycol (PEG) 8000 containing 1.5 M NaCl. After 1 hour incubation in ice, viral nucleocapsids were pelleted by centrifugation at 6,000×g for 5 min at 4° C., followed by 1 hour digestion at 37° C. in 400 μl of digestion buffer containing 0.5 mg/ml pronase (Calbiochem), 0.5% SDS, 150 mM NaCl, 25 mM Tris-HCl (pH 8.0) and 10 mM EDTA. The digestion mixture was extracted twice with phenol and DNA was precipitated with ethanol, dissolved in TE buffer (10 mM Tris-HCl, pH 8.0; 0.1 mM EDTA). One half of the DNA sample from each well was resolved by electrophoresis into a 1.5% agarose gel. The gel was then subjected to denaturation in a solution containing 0.5 M NaOH and 1.5 M NaCl, followed by neutralization in a buffer containing 1 M Tris-HCl (pH7.4) and 1.5 M NaCl. DNA was then blotted onto Hybond-XL membrane (GE Health care) in 20×SSC buffer. The amounts of cytoplasmic HBV core-associated HBV DNA were determined by Southern blot hybridization and the antiviral efficacy of a compound was expressed as its concentration that reduce the amount of HBV DNA by 50% (EC50) or 90% (EC90).

HBV mRNA = assay: Analysis of HBV mRNA by Northern blot in AML12HBV10 cells; assay type: cell-based, Hepatitis B virus (HBV); conditions: 2 days, FIG. 3 panel A
Method: To obtain mechanistic insight of the compounds of present invention against HBV, AML12HBV10 cells cultured in the 12-well plates were treated with a series of concentrations of DVR-1, DVR-56 or DVR-23 for two days in the absence of tetracycline (Guo et al., 2007). As positive controls, the cells were also treated with Bay41-4109 (5 μM) or AT-61 (25 μM), the known HBV nucleocapsid assembly effectors that either bind to HBV core protein dimmer to misdirect its interaction and prevent capsid formation (Bay41-4109) (Deres et al., 2003: Stray and Zlotnick, 2006), or interact with a core assembly intermediate and promote the formation of empty capsids (AT-61) (Feld et al., 2007; Katen et al., King et al., 1998). The amounts of intracellular viral mRNA, encapsidated pgRNA, capsids and nucleocapsid-associated HBV DNA were analyzed with the methods detailed below.
Procedure for analysis of HBV mRNA: Upon the completion of treatment, total cellular RNA was extracted with TRIzol reagents (Invitrogen). Five micrograms of total RNA was resolved in 1.5% agarose gel containing 2.2 M formaldehyde and transferred onto Hybond-XL membrane in 20×SSC buffer. The amounts of HBV mRNA were determined by Northern blot hybridization with an alpha-^32P-UTP labeled riboprobe specific for plus strand of HBV genome.

[4] = AML12HBV10 cells, 48 hours, concentration reducing HBV DNA by 50%, read-out: EC50 (antiviral activity by dot blot hybridization)
[5] = Table 10, AML12HBV10 cells, unit inferred, read-out: AML12HBV10 EC50

SMILES	pEC50 (HBV [1]; [4])	pEC50 (HBV [1]; [5])	CC50 at 48 h [2]	CC50 (AML12HBV10 cells)	EC90 (HBV [3])	pEC50 (HBV [3])	amount of viral mRNA (HBV mRNA)
O=C(Nc1ccc(F)c(F)c1)c1cc(S(=O)(=O)NC2CCCC2)ccc1F [DVR-56, 5-cyclopentylsulfamoyl-N-(3,4-difluoro-phenyl)-2-fluoro-benzamide]	6.41	6.41	> 50000 nM	> 50000 nM	1850 nM	6.38	did not affect
CCC(C)NS(=O)(=O)c1ccc(F)c(C(=O)Nc2ccc(F)c(F)c2)c1 (centres unmarked) [DVR-23, 5-sec-butylsulfamoyl-N-(3,4-difluoro-phenyl)-2-fluoro-benzamide]	6.41	6.41	> 50000 nM	> 50000 nM	860 nM	6.55	did not affect

— patent US9758477B2, “Sulfamoylbenzamide derivatives as antiviral agents against HBV infection” (priority 2011, dated 2017)
